Measurements taken from ChEMBL document CHEMBL1134051, “Synthesis and biological activity of the 1alpha,25-dihydroxyvitamin D3 diastereomer with unnatural configuration at the rings C/D side-chain moiety” (2001).

Legend:
HL-60 = assay: Dosage required for differentiation of HL-60 cells to monocytes; assay type: functional, Homo sapiens
[1] = Dose required to inhibit proliferation of human peripheral blood mononuclear cells (PMBC); assay type: functional
Mus musculus = assay: Dose required to induce hypercalcemia after administration in mice; assay type: functional

## C=C1/C(=C\C=C2/CCC[C@]3(C)[C@@H]2CC[C@H]3[C@@H](C)CCCC(C)(C)O)C[C@@H](O)C[C@@H]1O
HL-60
  Dose: 100 nM
[1]
  Dose: 100 nM

## C=C1/C(=C\C=C2/CCC[C@]3(C)[C@@H]([C@H](C)CCCC(C)(C)O)CC[C@@H]23)C[C@@H](O)C[C@@H]1O [CALCITRIOL]
Mus musculus
  Dose: 0.1 µg/kg
